Key:
[1] = system: bile duct ligation cholestasis; assay: Bile duct ligated (BDL) rat model of cholestasis; format: in vivo, CD1 rats
Protocol: The subjects for the study were CD1 male rats (8 weeks of age, 200-225 g). Rats underwent BDL surgery, where the extrahepatic biliary tract was tightly ligated twice with sutures, then cut between the two ligations. A sham group (N=5/group) was also included in a subset of the studies described. […] The Vehicle was a solution of 0.5% (w/v) CMC and 0.05% (v/v) Tween-80 in water. Powdered 25HC3 S was constituted into the Vehicle solution to result in drug concentrations of 0.833 to 5 mg/mL. The suspensions were homogenized for approximately 5 minutes being combined, with 10 second breaks every 30-40 seconds and swirled before dosing to maintain homogeneity. The formulated test article was prepared weekly and kept at room temperature. […] were divided into treatment groups (N=8-10/group) and dosed daily or every 3 days for 9 days by oral gavage. 5, 10, 30 or 60 mg/kg 25HC3S or Vehicle was given starting one day (Day 1) after BDL surgery. On Day 10, serum was collected after an overnight fast and measured for serum biochemistry.

[2] = Ease of dispersion: appearance of suspension and sedimentation (visual inspection); format: physicochemical; details: 25 mg/mL in Vehicle PEG 3350 (without L-Methionine)
Protocol: Two lots of 25HC3S sodium salt (Lot #A and Lot #B) were used. Lot #B was delumped through a 20 mesh screen. The drug substance was either used directly or further jet-milled, prior to the preparation of suspensions for the studies. A third lot of 25HC3 S sodium salt (Lot #C) was jet-milled first and then used directly or further passed through a 20 mesh screen prior to the studies. More than 10 vehicles were screened. Four mixing methods were evaluated: manual shaking (Mixing Method 1), manual shaking followed by sonication (Mixing Method 2) and homogenization with a sonic probe (Mixing Method 3) as well as mechanical shaking horizontally in a flat bed shaker (Mixing Method 4). Studies #1 to 13 combined vehicle screening, mixing methods and syringeability evaluation. The effect of drug concentrations on the syringeability was evaluated (Studies #10 and 11).
Weigh approximately 10 to 100 mg each of 25HC3S into 2 mL vials. Add to each vial, 1 mL of vehicle. A total of 3 mixing methods were used to prepare the suspensions. Mixing Method 1: Each vial was manually shaken for 15 to 45 times. The suspension was inspected visually for sedimentation after stored at room temperature (RT) for one minute. […] Mixing Method 2: Each vial was manually shaken 30 times followed by sonication for 3 or 6 minutes for syringeability study. […]

[3] = system: APAP-induced liver failure; assay: Acetaminophen (APAP)-induced model of acute liver failure; format: in vivo, C57BL/6J mice; details: 25 mg/kg oral gavage 1 hr (and 24 hr) post APAP 300 mg/kg; vs vehicle
Protocol: The subjects for the study were 52 C57BL/6J male mice (12 weeks of age; 27.4-40 g). […] All animals were in healthy condition and admitted to the study.
The Vehicle was a solution of 0.5% (w/v) CMC and 0.05% (v/v) Tween-80 in water. Powdered 25HC3 S was constituted into the vehicle solution to result in a drug concentration of 3 mg/mL. The suspensions were homogenized at 20,000 rotations per minute (rpm) for approximately 5 minutes after being combined, with 10 second breaks every 30-40 seconds and swirled before dosing to maintain homogeneity. The formulated test article was prepared weekly and kept at room temperature.
Two groups of mice (N=14/group) were challenged with 300 mg/kg APAP by oral gavage. The two groups were treated with one dose of vehicle or 25HC3 S (25 mg/kg) by oral gavage at a dose volume of 8.33 mL/kg one hour post-APAP challenge. Half of the mice in each group (N=6-7/group) were given a second dose of vehicle or 25HC3 S (25 mg/kg) at 24 hour post-APAP delivery in addition to the first dose at 1 hr. Cohort A mice (single dose) were sacrificed 24 hrs post APAP-challenge and Cohort B mice (two doses) were sacrificed at 48 hours post APAP-challenge. A parallel set of untreated age-matched mice (no APAP and vehicle administered by oral gavage) were also sacrificed at both time points to compare baseline measurements (N=6/time point; 12 in total). […]

[4] = Osmolality by vapor pressure osmometer; format: physicochemical
Protocol: Vapor Pressure Osmometer: Vapor® Vapor Pressure Osmometer, Model
Vehicle PEG 3350 (3% PEG 3350 plus 0.3% Tween 80 in 10 mM Phosphate at pH 7.4) with 0.71%, 0.77% and 0.80% NaCl were prepared and the osmolality was measured with a vapor pressure osmometer.
Weigh 87 mg of 25HC3S (Lot #C, Jet milled and then pass 20 mesh screen) into a 5-mL vial. Add to the vial 3 mL Vehicle PEG 3350 (without L-methionine and with 0.75% NaCl). […] Weigh another approximately and accurately 90 mg each of 25HC3S (Lot #D and Lot #B, micronized, one pass) into 3 separate 10 mL vials with 3 mL of Vehicle PEG 3350. The vials were placed in a flat bed shaker at 200 rpm for 45 minutes (Mixing Method 4). […] A second set of samples was prepared likewise from the same 3 vials except using 1 mL BD syringe attached to a 27G½″ needle. The homogeneity was determined (Study #19).

[5] = daily oral 10 or 30 mg/kg (follow-up study)

C[C@H](CCCC(C)(C)O)[C@H]1CC[C@H]2[C@@H]3CC=C4C[C@@H](OS(=O)(=O)[O-])CC[C@]4(C)[C@H]3CC[C@]12C.[Na+] [Formulation 25HC3S, 5-cholesten-3, 25-diol, 3-sulfate]
body weight and other serum chemistry measures ([1]; daily oral 5 mg/kg): little or no differences | Body temperature on Day 9 ([1]; daily oral 5 mg/kg, vs Vehicle): significantly improved | spleen-to-body weight ratio ([1]; daily oral 5 mg/kg, vs Vehicle): significantly improved | body weight gain after surgery ([1]; daily oral 30 mg/kg (pilot study)): significantly improved | body weight gain after surgery ([1]; daily oral 60 mg/kg (pilot study)): modest increases | liver histological analyses [1, 5]: no differences | serum liver enzymes [1, 5]: trends of decrease | Serum total, direct and indirect bilirubin levels ([1]; daily oral 10 or 30 mg/kg, vs Vehicle (follow-up study)): significantly reduced | serum biochemistry analytes, including serum bilirubin ([1]; daily oral 30 or 60 mg/kg (pilot study)): No significant differences | body weight, organ-to-bodyweight ratios or serum clinical chemistry ([1]; oral every three days (Days 1, 4, 7), 10 or 30 mg/kg): no significant differences | dispersion ([2]; flat bed shaker 100 rpm up to 50 minutes (Study #12)): did not disperse well | dispersion ([2]; flat bed shaker 200 rpm up to 45 minutes (Study #13)): dispersed well | serum chemistry parameters (ALT, AST, ALK, LDH, BUN, glucose) [3]: no effect | osmolality ([4]; final improved formulation 25 mg/mL (Study #18)): 321 mmol/kg | osmolality ([4]; suspension 25 mg/mL in Vehicle PEG 3350 without L-Methionine, 0.75% NaCl, average of 6 measurements): 321 mmol/kg

Reference: patent US20220175798A1, “COMPOSITIONS COMPRISING OXYGENATED CHOLESTEROL SULFATE AND AT LEAST ONE OF POLYALKYLENE GLYCOL, CARBOXYMETHYL CELLULOSE AND POLYOXYLGLYCERIDE” (Durect Corporation, priority 2016, published 2022)
